The source of these data is US9108958B2, “Selective CCR2 antagonists” (Boehringer Ingelheim International GmbH, priority 2011, dated 2015).

The target of one test is T1, human CCR5 (Homo sapiens, UniProt P51681).
T1 construct: expressed in transfected cells; host or cells: CHO cells co-expressing Gα16, under puromycin and zeocin selection; membrane preparation
Briefly: CCR5 receptor membrane binding assay ([125I]RANTES, CHO (Gα16) human CCR5 cell membranes, SPA beads). The note with it: bound radioactivity after 6 h, read-out: hKi [nM] (CCR5). The method, then: The above exemplary substances have been tested for binding to CCR5 using a binding assay as outlined herein below:
CHO, (Gα16) human CCR5 cells were cultured under standardized conditions at 37° C. and 5% CO2 in a humidified incubator. CHO (Gα16) human CCR5 cells were cultivated in Ham's F12 (Invitrogen; #31765068) supplemented with 10 μg/ml Puromycin (Invitrogen; #A11139-03), 200 μg/ml Zeocin (Invitrogen; #45-0003) and 10% FCS (Gibco; #10500-064).
Membranes were prepared from CHO (Gα16) human CCR5 cells. Cells were cultured on […] plates (Nunc; #166508) 2-3 days before membrane preparation (usually 80-100 plates to obtain 80 mg protein).
Cells were scraped off the plates with a big scraper and washed with 2×5 ml ice cold Phosphate Buffer Saline (PBS; Invitrogen; #14040-174). Cell suspension was collected in a glass bottle (on ice). Cell suspension was harvested at 1400 rpm and 4° C. for 10 min and washed in PBS. Cell pellet was resuspended in 40 ml PBS with protease inhibitor mix ‘complete’ (Roche; #11873580001; 1 tablet/50 ml).
For gentle cell disruption the membrane preparation was performed by using a homogenizer (potter). Cells were homogenized for 5-10 min.
Membranes were centrifuged at 1000 rpm and 4° C. for 5 min Supernatant (=membrane) was harvested in a new falcon tube and remaining cell pellet homogenized again for 5-10 min with PBS with protease inhibitor mix and centrifuged. Collected supernatant was centrifuged at 40000 rpm and 4° C. for 30 min to sediment the cell membranes.
The membranes were resuspended in 25 mM HEPES, 25 mM MgCl2, 1 mM CaCl2, 10% Glycerine for storage in aliquots at −80° C. Membranes were diluted to a concentration of 5 mg/ml (Bradford Assay).
(§1) Receptor Membrane Binding Assay:
[^125I]RANTES, Stock: 1825 Ci/mmol, 25 μCi (Bio Trend #A3-AI-676) was solved in 1000 μl assay buffer (100 mM NaCl; 10 mM MgCl2; 50 mM Tris-HCl; 1 mM EDTA; 0.1% BSA, pH 7.6), stored at −20° C.
CHO (Gα16) human CCR5 membrane were solved on ice and adjusted with assay buffer to a concentration of 2.5 μg/15 μl.
Amersham Biosciences PVT-WGA Beads (GE Healthcare; #RPNQ0001) were adjusted with assay buffer to a concentration of 8 mg/ml. For preparation of the membrane-bead-suspension, membranes and beads were incubated for 30 min at RT under rotation with a ratio of 1:2.
Test compounds dissolved in 100% DMSO to a concentration of 10 mM and are further diluted with 100% DMSO to 1 mM. All additional compound dilutions were obtained with assay buffer, final 1% DMSO. 7 μl compound dilution, 45 μl membrane-bead-suspension and 10 μl [^125I]RANTES (ca. 20000 cpm/10 μl) were incubated at RT. Bound radioactivity was determined by scintillation counter after 6 h. Determination of affinity of test compounds (dissociation constant Ki) is calculated by iterative fitting of experimental data using the “easy sys” program, which is based on law of mass action (Schittkowski K. (1994), Numerische Mathematik, Vol. 68, 129-142).

The next test has as its target T2, CCR2 (Homo sapiens, UniProt P41597).
T2 construct: Membranes were prepared from THP-1 cells; endogenous in cells; host or cells: THP-1 (human acute monocytic leukaemia cells), membrane preparation
T2 sequence (P41597 1-360 isoform P41597-2): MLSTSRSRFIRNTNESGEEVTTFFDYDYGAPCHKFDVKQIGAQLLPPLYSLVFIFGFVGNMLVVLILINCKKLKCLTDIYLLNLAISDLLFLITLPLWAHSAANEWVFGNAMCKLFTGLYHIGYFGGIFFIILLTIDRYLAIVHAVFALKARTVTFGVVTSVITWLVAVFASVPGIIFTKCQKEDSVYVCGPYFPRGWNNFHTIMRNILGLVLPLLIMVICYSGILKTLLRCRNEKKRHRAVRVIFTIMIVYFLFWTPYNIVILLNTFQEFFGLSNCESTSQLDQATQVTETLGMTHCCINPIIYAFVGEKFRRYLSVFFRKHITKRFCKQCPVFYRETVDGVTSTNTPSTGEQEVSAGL
Briefly: CCR2 receptor membrane binding assay ([125I]MCP-1, THP-1 cell membranes, SPA beads). The note with it: THP-1 membranes, [125I]MCP-1, bound radioactivity after 8 h; read-out: hKi [nM](CCR2). The method, then:
The above exemplary substances have been tested for binding to CCR2 using a binding assay as outlined herein below:
THP-1 cells (human acute monocytic leukaemia cells) were cultured under standardized conditions at 37° C. and 5% CO2 in a humidified incubator. THP-1 cells were cultivated in RPMI 1640 medium (Gibco 21875) containing 1% MEM-NEAA (Gibso 11140) 2 mM L-glutamine, 1.5 g/L sodium bicarbonate, 4.5 g/L glucose, 10 mM HEPES and 1.0 mM sodium pyruvate, 90%; 10% fetal calf serum (FCS Gibco 10500-064).
Membranes were prepared from THP-1 cells. THP-1 cells were centrifuged at 300×g at 4° C. for 10 min. The cell pellet was resuspendet in Phosphate Buffer Saline (PBS, including 10 μM Pefabloc and a protease inhibitor mix ‘complete’, Boehringer Mannheim (1 tablet/50 ml)), to a concentration of […]. The membrane preparation was performed by disrupting the cells by nitrogen […] (at 50 bar, for 1 h) in a “Nitrogen Bombe” (Parr Instrument). Cell debris was removed by centrifugation (800×g at 4° C., 1 min) The supernatant was centrifuged at 80000×g, 4° C. for 30 min to sediment the cell membranes. Usually 50 mg of protein (Bradford assay) were yielded from 1×10E9 cells. The membranes were resuspendet in 25 mM HEPES, 25 mM MgCl2, 1 mM CaCl2, 10% Glycerine for storage in aliquots at −80° C. in 25 mM HEPES, 25 mM MgCl2, 1 mM CaCl2, 10% Glycerine and stored at −80° C.
as §1
Perkin Elmer NEX 332 Jod^125 MCP-1, Stock: 2200 Ci/mmol solved in 2000 μl assay buffer, stored at −20° C. THP-1 membrane were adjusted with 25 mM HEPES, pH 7.2; 5 mM MgCl2; 0.5 mM CaCl2; 0.2% BSA assay buffer to a concentration of 2.5 μg/15 μl. Amersham Biosciences PVT-WGA Beads (RPNQ0001) were adjusted with assay buffer to a concentration of 0.24 mg/30 μl. For preparation of the membrane-bead-suspension membranes and beads were incubated for 30 min at RT under rotation (60 rpm) with a ratio of 1:2. Test compounds dissolved in 100% DMSO to a concentration of 10 mM and are further diluted with 100% DMSO to 1 mM. All additional compound dilutions were obtained with assay buffer, final 1% DMSO. Compounds, membrane-bead-suspension and [^125I]MCP-1 (ca. 25000 cpm/10 μl) were incubated. Bound radioactivity was determined by scintillation counter after 8 h. Determination of affinity of test compounds (dissociation constant hKi) is calculated by iterative fitting of experimental data using the “easy sys” program, which is based on law of mass action (Schittkowski K. (1994), Numerische Mathematik, Vol. 68, 129-142).

T1 sequence (P51681 whole entry): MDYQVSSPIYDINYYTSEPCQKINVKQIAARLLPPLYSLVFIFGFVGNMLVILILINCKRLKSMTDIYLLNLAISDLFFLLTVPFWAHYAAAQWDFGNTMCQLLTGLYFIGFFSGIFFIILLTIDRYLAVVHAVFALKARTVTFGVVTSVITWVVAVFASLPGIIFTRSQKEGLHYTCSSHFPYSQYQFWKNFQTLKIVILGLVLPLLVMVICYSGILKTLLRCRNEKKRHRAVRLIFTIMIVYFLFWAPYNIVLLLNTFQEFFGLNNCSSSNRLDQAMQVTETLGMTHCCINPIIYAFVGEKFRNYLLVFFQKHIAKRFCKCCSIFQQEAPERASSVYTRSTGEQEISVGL

`Cc1c(Nc2ccc(Cl)c(Cl)c2)nc(CF)nc1C(=O)N1CCC(N[C@@H]2CCOC[C@@H]2F)CC1` [Example 37]: the figures for the Ki on human CCR5 and on CCR2 were 1370 nM and 8 nM, respectively. In the same order, the values of `Cc1cc(-c2nc(C(=O)N3CCC(N[C@H]4CCOC[C@H]4F)CC3)c(C)c(N3CCc4cc(C(F)(F)F)ccc4C3)n2)no1` [Example 9] are 3400 nM and 38 nM.

`CC(=O)N1CCC(c2nc(Nc3ccc(Cl)c(Cl)c3)c(C)c(C(=O)N3CCC(N[C@@H]4CCOC[C@@H]4F)CC3)n2)CC1` [Example 42]: the Ki at CCR2 is 17 nM. On to `Cc1c(C(=O)N2CCC(N[C@H]3CCOC[C@H]3F)CC2)nc(C2CCOCC2)nc1N1CCc2cc(C(F)(F)F)ccc2C1` [Example 5], for which the Ki is 4580 nM on human CCR5 and 14 nM on CCR2. Taken in the same sequence, the figures for `Cc1c(C(=O)N2CCC(N[C@H]3CCOC[C@@H]3F)CC2)nc(CF)nc1N1CCc2ccc(C(F)(F)F)cc2C1` (relative stereo) [Example 46] were 3680 nM and 34 nM. On to `CO[C@H]1COCC[C@H]1NC1CCN(C(=O)c2nc(C3CCOCC3)nc(N3CCc4cc(C(F)(F)F)ccc4C3)c2C)CC1` [Example 3], for which the Ki worked out at 700 nM on human CCR5 and 4 nM at CCR2.

As for `Cc1c(C(=O)N2CCC(N[C@@H]3CCOC[C@@H]3F)CC2)nc(C2CCOCC2)nc1N1CCc2ccc(C(F)(F)F)cc2C1` [Example 14], the results for the Ki on human CCR5 and at CCR2 were 2090 nM and 3 nM, respectively.

Regarding `CO[C@@H]1COCC[C@@H]1NC1CCN(C(=O)c2nc(C3CCOCC3)nc(N3CCc4ccc(C(F)(F)F)cc4C3)c2C)CC1` [Example 12], the Ki on human CCR5 came out at 46 nM; at CCR2 it was 0.6 nM. As for `Cc1c(C(=O)N2CCC(NC3CCOCC3)CC2)nc(C(F)(F)F)nc1N1CCc2ccc(C(F)(F)F)cc2C1` [Example 33], the Ki on CCR2 stood at 7 nM.

`CO[C@H]1COCC[C@H]1NC1CCN(C(=O)c2nc(-c3cc(C)on3)nc(N3CCc4cc(C(F)(F)F)ccc4C3)c2C)CC1` [Example 10]: the Ki was found to be 850 nM at human CCR5 and 15 nM at CCR2. Turning to `Cc1c(Nc2ccc(Cl)c(Cl)c2)nc(CF)nc1C(=O)N1CCC(N2CCOCC2)CC1` [Example 38], the Ki on CCR2 came out at 37 nM. Still for that read-out and setting: for `CC(=O)N1CCC(c2nc(Nc3ccc(Cl)c(Cl)c3)c(C)c(C(=O)N3CCC(N[C@H]4CCOC[C@H]4F)CC3)n2)CC1` [Example 43] the value was 19 nM; for `Cc1c(Nc2ccc(Cl)c(Cl)c2)nc(CF)nc1C(=O)N1CCC(N2CCC(N(C)S(C)(=O)=O)CC2)CC1` [Example 36], 2 nM. For the compound `Cc1cc(-c2nc(NC[C@H]3CCC[C@@H](c4ccc(C(F)(F)F)cc4)O3)c(C)c(C(=O)N3CCC(N[C@@H]4CCOC[C@@H]4F)CC3)n2)no1` [Example 24], the Ki on human CCR5 is 50 nM; at CCR2 it was 1 nM. Take `CO[C@H]1COCC[C@H]1NC1CCN(C(=O)c2cc(NC[C@H]3CCC[C@@H](c4ccc(C)cc4)O3)nc(CF)n2)CC1` [Example 32]: at CCR2, the Ki was determined as 5 nM. Turning to `Cc1cc(-c2nc(NC[C@H]3CCC[C@@H](c4ccc(C(F)(F)F)cc4)O3)c(C)c(C(=O)N3CCC(N[C@H]4CCOC[C@H]4F)CC3)n2)no1` [Example 23], on CCR2, the Ki came out at 1 nM. For `Cc1c(NC[C@H]2CCC[C@@H](c3ccc(C(F)(F)F)cc3)O2)nc(C2CCOCC2)nc1C(=O)N1CCC(N[C@@H]2CCOC[C@@H]2F)CC1` [Example 15], the values for the Ki on human CCR5 and on CCR2 were 270 nM and 3 nM, respectively. Taken in the same sequence, the figures for `CO[C@H]1COCC[C@H]1NC1CCN(C(=O)c2nc(CF)nc(N3CCc4ccc(C(F)(F)F)cc4C3)c2C)CC1` [Example 18] were 460 nM and 5 nM. For the compound `CSc1ccc([C@@H]2CCC[C@H](CNc3cc(C(=O)N4CCC(NC5CCOCC5F)CC4)nc(CF)n3)O2)cc1` (some centres unmarked) [Example 40], the Ki came out at 230 nM on human CCR5 and 7 nM on CCR2. Take `CO[C@@H]1COCC[C@@H]1NC1CCN(C(=O)c2cc(NC[C@H]3CCC[C@@H](c4ccc(C)cc4)O3)nc(CF)n2)CC1` [Example 30]: the Ki on CCR2 turned out to be 3 nM. On the same count and under the same terms, for `CO[C@H]1COCC[C@H]1NC1CCN(C(=O)c2cc(NC[C@H]3CCC[C@@H](c4ccc(SC)cc4)O3)nc(CF)n2)CC1` [Example 41] the value was 2 nM. The same measure, in the same setting: in the case of `CO[C@@H]1COCC[C@@H]1NC1CCN(C(=O)c2cc(NC[C@H]3CCC[C@@H](c4ccc(SC)cc4)O3)nc(CF)n2)CC1` [Example 39] it was 4 nM. Regarding `CO[C@@H]1COCC[C@@H]1NC1CCN(C(=O)c2nc(-c3cc(C)on3)nc(NC[C@H]3CCC[C@@H](c4ccc(C(F)(F)F)cc4)O3)c2C)CC1` [Example 22], on CCR2, the Ki turned out to be 0.7 nM.

Regarding `CO[C@@H]1COCC[C@@H]1NC1CCN(C(=O)c2nc(C3CCN(C(C)=O)CC3)nc(Nc3ccc(Cl)c(Cl)c3)c2C)CC1` [Example 44], the Ki at CCR2 was determined as 4 nM. With `CO[C@H]1COCC[C@H]1NC1CCN(C(=O)c2nc(-c3cc(C)on3)nc(NC[C@H]3CCC[C@@H](c4ccc(C(F)(F)F)cc4)O3)c2C)CC1` [Example 25], the Ki on CCR2 was 1 nM. For the compound `Cc1ccc([C@@H]2CCC[C@H](CNc3cc(C(=O)N4CCC(NC5CCOCC5F)CC4)nc(CF)n3)O2)cc1` (some centres unmarked) [Example 31], the Ki on CCR2 came out at 15 nM.
